Source: ChEMBL document CHEMBL2040817, “Fragment-based discovery of hydroxy-indazole-carboxamides as novel small molecule inhibitors of Hsp90” (Bioorg Med Chem Lett, 2012)

Experiments:
[1] = target: T1, Heat shock protein HSP 90-beta (Homo sapiens, UniProt P08238); assay: Displacement of [3H]17AAG from human recombinant Hsp90 after 30 mins by beta scintillation counting
A2780 = assay: Antiproliferative activity against human A2780 cells after 72 hrs by alamar blue assay; format: functional, cell-based; details: A2780, 72 h
PC-3 = assay: Antiproliferative activity against human PC3 cells after 72 hrs by alamar blue assay; format: functional, cell-based; details: PC-3, 72 h
MCF7 = assay: Antiproliferative activity against human MCF7 cells after 72 hrs by alamar blue assay; format: functional, cell-based; details: MCF7, 72 h
COLO 205 = assay: Antiproliferative activity against human COLO205 cells after 72 hrs by alamar blue assay; format: functional, cell-based; details: COLO 205, 72 h
[2] = target: T1, Heat shock protein HSP 90-beta; assay: Inhibition of Hsp90 in human A2780 cells assessed as Hsp70 upregulation after 24 hrs by immunostaining method; format: cell-based

T1 sequence (P08238 whole entry): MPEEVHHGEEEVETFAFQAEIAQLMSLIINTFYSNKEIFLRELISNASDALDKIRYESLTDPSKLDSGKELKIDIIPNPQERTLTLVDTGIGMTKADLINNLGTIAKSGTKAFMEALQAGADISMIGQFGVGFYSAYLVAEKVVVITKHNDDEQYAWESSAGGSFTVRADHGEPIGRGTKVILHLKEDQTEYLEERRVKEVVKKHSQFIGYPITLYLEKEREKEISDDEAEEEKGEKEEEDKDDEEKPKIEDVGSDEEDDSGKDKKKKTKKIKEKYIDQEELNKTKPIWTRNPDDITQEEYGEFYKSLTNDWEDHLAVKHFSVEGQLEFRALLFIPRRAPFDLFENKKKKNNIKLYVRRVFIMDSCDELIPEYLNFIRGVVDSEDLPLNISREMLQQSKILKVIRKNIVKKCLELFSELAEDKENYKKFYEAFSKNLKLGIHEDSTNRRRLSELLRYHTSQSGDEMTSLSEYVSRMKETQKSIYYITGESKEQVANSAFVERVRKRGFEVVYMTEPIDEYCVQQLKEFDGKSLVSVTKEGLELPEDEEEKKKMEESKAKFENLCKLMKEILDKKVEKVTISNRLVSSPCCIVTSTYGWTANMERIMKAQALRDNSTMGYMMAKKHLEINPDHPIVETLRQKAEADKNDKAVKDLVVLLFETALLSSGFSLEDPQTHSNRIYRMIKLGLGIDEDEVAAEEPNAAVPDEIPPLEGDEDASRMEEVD

| SMILES | IC50 [1] | IC50 (A2780) | further results |
| --- | --- | --- | --- |
| COc1cccc(Cc2n[nH]c3cc(O)c(C(=O)N(C)Cc4ccccc4)cc23)c1 | 1.4 µM | – | – |
| CCN(Cc1ccccc1)C(=O)c1cc2c(Cc3cccc(C)c3)n[nH]c2cc1O | 3 µM | – | – |
| Cc1ccc(-c2nc(N)nc3ccc(Cl)cc23)cc1 | 0.9 µM | – | – |
| CN(Cc1cccc(F)c1)C(=O)c1cc2c(Cc3cccc(Cl)c3)n[nH]c2cc1O | 0.71 µM | 0.44 µM | – |
| CCc1cccc(Cc2n[nH]c3cc(O)c(C(=O)N(C)Cc4ccccc4)cc23)c1 | 1.3 µM | – | – |
| CN(Cc1ccc(F)cc1)C(=O)c1cc2c(Cc3ccccc3)n[nH]c2cc1O | 1.1 µM | 4.1 µM | – |
| CCCCN(C)C(=O)c1cc2c(Cc3ccccc3)n[nH]c2cc1O | 1.8 µM | 7.6 µM | – |
| CCc1ccc(CN(C)C(=O)c2cc3c(Cc4ccccc4)n[nH]c3cc2O)cc1 | 0.39 µM | 9.4 µM | – |
| COc1cccc(CN(C)C(=O)c2cc3c(Cc4ccccc4)n[nH]c3cc2O)c1OC | 0.47 µM | 4.8 µM | – |
| CCOc1ccc(CN(C)C(=O)c2cc3c(Cc4ccccc4)n[nH]c3cc2O)cc1 | 0.76 µM | 3.2 µM | – |
| Cc1cccc(Cc2n[nH]c3cc(O)c(C(=O)N(C)Cc4ccccc4Br)cc23)c1 | 0.78 µM | 0.31 µM | – |
| CN(Cc1cccc(Br)c1)C(=O)c1cc2c(Cc3ccccc3)n[nH]c2cc1O | 1.3 µM | 7.1 µM | – |
| COc1cc2[nH]nc(Cc3cccc(C)c3)c2cc1C(=O)N(C)Cc1ccccc1 | > 20 µM | – | – |
| COc1ccc(CN(C)C(=O)c2cc3c(Cc4cccc(Cl)c4)n[nH]c3cc2O)cc1OC | 0.73 µM | 2.4 µM | – |
| COc1cc(CN(C)C(=O)c2cc3c(Cc4cccc(C)c4)n[nH]c3cc2O)ccc1Cl | 0.68 µM | 1.6 µM | – |
| Cc1cccc(Cc2n[nH]c3cc(O)c(C(=O)N(C)Cc4cccc(F)c4)cc23)c1 | 0.37 µM | 0.44 µM | – |
| Nc1nc(Cl)cc(Cc2ccc(Cl)cc2)n1 | 21 µM | – | – |

| SMILES | IC50 [1] | IC50 (A2780) | further results |
| --- | --- | --- | --- |
| COc1cc(CN(C)C(=O)c2cc3c(Cc4ccccc4)n[nH]c3cc2O)ccc1Cl | 2.3 µM | 4.1 µM | – |
| CN(Cc1ccccc1Br)C(=O)c1cc2c(Cc3ccccc3)n[nH]c2cc1O | 0.61 µM | 1.2 µM | – |
| CN(Cc1ccc(CNS(C)(=O)=O)cc1)C(=O)c1cc2c(Cc3cccc(Cl)c3)n[nH]c2cc1O | 0.06 µM | 0.57 µM | IC50 (PC-3): 4.3 µM; IC50 (MCF7): 3.5 µM; IC50 (COLO 205): 9.5 µM; IC50 [2]: 1 µM |
| COc1ccc(CN(C)C(=O)c2cc3c(Cc4cccc(Cl)c4)n[nH]c3cc2O)cc1 | 0.8 µM | 0.39 µM | – |
| Cc1ccc(Cc2n[nH]c3cc(O)c(C(=O)N(C)Cc4ccccc4)cc23)cc1 | 1.3 µM | > 10 µM | – |
| CN(Cc1ccc(F)cc1)C(=O)c1cc2c(Cc3cccc(Cl)c3)n[nH]c2cc1O | 0.8 µM | 0.41 µM | – |
| CN(Cc1ccccc1F)C(=O)c1cc2c(Cc3ccccc3)n[nH]c2cc1O | 0.9 µM | 1.5 µM | – |
| Cc1cccc(Cc2n[nH]c3cc(O)c(C(=O)N(C)Cc4ccc(NS(C)(=O)=O)cc4)cc23)c1 | 0.35 µM | 1.6 µM | – |
| CN(Cc1cccc(NS(C)(=O)=O)c1)C(=O)c1cc2c(Cc3cccc(Cl)c3)n[nH]c2cc1O | 0.41 µM | 3.2 µM | – |
| Cc1cccc(Cc2n[nH]c3cc(O)c(C(=O)N(C)Cc4ccc(F)cc4)cc23)c1 | 0.58 µM | 0.59 µM | – |
| CN(Cc1ccccc1)C(=O)c1cc2c(Cc3cccc(Cl)c3)n[nH]c2cc1O | 0.4 µM | 0.41 µM | – |
| CCc1ccc(Cc2n[nH]c3cc(O)c(C(=O)N(C)Cc4ccccc4)cc23)cc1 | 2.5 µM | > 10 µM | – |
| CN(C(=O)c1cc2c(Cc3ccccc3)n[nH]c2cc1O)c1ccco1 | 0.61 µM | 2.5 µM | – |
| CCCN(C)C(=O)c1cc2c(Cc3ccccc3)n[nH]c2cc1O | 1.9 µM | > 10 µM | – |
| COc1ccc(CN(C)C(=O)c2cc3c(Cc4cccc(C)c4)n[nH]c3cc2O)cc1 | 0.46 µM | 0.54 µM | – |
| Cc1cccc(Cc2n[nH]c3cc(O)c(C(=O)N(C)Cc4ccc(Cl)c(F)c4)cc23)c1 | 0.17 µM | 0.93 µM | – |
| CN(Cc1cccc(C(F)(F)F)c1)C(=O)c1cc2c(Cc3ccccc3)n[nH]c2cc1O | 3.4 µM | – | – |

Now from value to compound, other results behind:

| IC50 [1] | IC50 (A2780) | SMILES | further results |
| --- | --- | --- | --- |
| 0.5 µM | 0.53 µM | Cc1cccc(Cc2n[nH]c3cc(O)c(C(=O)N(C)Cc4ccc(F)c(F)c4)cc23)c1 | – |
| 0.57 µM | 5 µM | CN(Cc1cccc(F)c1)C(=O)c1cc2c(Cc3ccccc3)n[nH]c2cc1O | – |
| 3.6 µM | – | Cc1cccc(CN(C)C(=O)c2cc3c(Cc4ccccc4)n[nH]c3cc2O)c1 | – |
| 4 µM | – | COCCN(C)C(=O)c1cc2c(Cc3ccccc3)n[nH]c2cc1O | – |
| 1.1 µM | 1.1 µM | CN(Cc1ccccc1Cl)C(=O)c1cc2c(Cc3ccccc3)n[nH]c2cc1O | – |
| 1.1 µM | 2.8 µM | CN(Cc1ccc(Br)cc1)C(=O)c1cc2c(Cc3ccccc3)n[nH]c2cc1O | – |
| 0.15 µM | 0.71 µM | Cc1cccc(Cc2n[nH]c3cc(O)c(C(=O)N(C)Cc4ccc(CNS(C)(=O)=O)cc4)cc23)c1 | IC50 (PC-3): > 10 µM; IC50 (MCF7): 4.7 µM; IC50 (COLO 205): 3.7 µM; IC50 [2]: 1.1 µM |
| 0.66 µM | 0.98 µM | CN(Cc1ccccc1)C(=O)c1cc2c(Cc3ccccc3)n[nH]c2cc1O | – |
| 2.6 µM | – | CN(Cc1ccccc1)C(=O)c1cc2c(Cc3ccccc3Cl)n[nH]c2cc1O | – |
| 0.59 µM | 0.13 µM | CN(Cc1ccccc1Br)C(=O)c1cc2c(Cc3cccc(Cl)c3)n[nH]c2cc1O | – |
| 1.7 µM | 5.4 µM | COc1ccccc1CN(C)C(=O)c1cc2c(Cc3ccccc3)n[nH]c2cc1O | – |
| 0.98 µM | 3.8 µM | COc1cccc(CN(C)C(=O)c2cc3c(Cc4ccccc4)n[nH]c3cc2O)c1 | – |
| 0.63 µM | 6.9 µM | Cc1ccc(CN(C)C(=O)c2cc3c(Cc4ccccc4)n[nH]c3cc2O)cc1 | – |
| 87 µM | – | Oc1ccc2c(C3CCCC3)n[nH]c2c1 | – |
| 5.7 µM | – | CN(Cc1ccccc1)C(=O)c1cc2c(Cc3ccc(Cl)cc3)n[nH]c2cc1O | – |
| 1.5 µM | > 10 µM | Cc1cccc(Cc2n[nH]c3cc(O)c(C(=O)NCc4ccccc4)cc23)c1 | – |
| 1.3 µM | 1.7 µM | CN(Cc1ccccc1)C(=O)c1cc2c(Cc3cccc(F)c3)n[nH]c2cc1O | – |
| 0.23 µM | 4.6 µM | CN(Cc1ccccc1)C(=O)c1cc2c(CCc3ccccc3)n[nH]c2cc1O | – |
| 1.5 µM | 5.3 µM | CN(Cc1cccc(Cl)c1)C(=O)c1cc2c(Cc3ccccc3)n[nH]c2cc1O | – |
| 0.2 µM | 4 µM | Cc1cccc(Cc2n[nH]c3cc(O)c(C(=O)N(C)Cc4cccc(NS(C)(=O)=O)c4)cc23)c1 | – |
| 0.33 µM | 2.6 µM | CN(Cc1ccc(Cl)cc1)C(=O)c1cc2c(Cc3ccccc3)n[nH]c2cc1O | – |
| – | 0.49 µM | Cc1cccc(Cc2n[nH]c3cc(O)c(C(=O)N(C)Cc4ccccc4)cc23)c1 | – |
| 0.58 µM | 3.7 µM | COc1ccc(CN(C)C(=O)c2cc3c(Cc4cccc(C)c4)n[nH]c3cc2O)cc1OC | – |
| 61 µM | – | NC(=O)c1cc2c(Cc3ccccc3)n[nH]c2cc1O | – |
| 0.98 µM | > 10 µM | CN(Cc1ccc(Cl)c(F)c1)C(=O)c1cc2c(Cc3ccccc3)n[nH]c2cc1O | – |
| 0.74 µM | 4.4 µM | Cc1ccccc1CN(C)C(=O)c1cc2c(Cc3ccccc3)n[nH]c2cc1O | – |
| 2.4 µM | – | Cc1ccccc1Cc1n[nH]c2cc(O)c(C(=O)N(C)Cc3ccccc3)cc12 | – |
